How the values were obtained:
[1] = biological target: TakA (Rv1044), MBP-TakA (Mycobacterium tuberculosis, UniProt P96357)
[2] = biological target: TglT (Rv1045) (Mycobacterium tuberculosis, UniProt P96356)
TglT (Rv1045), sequence (P96356 1-293 limits assumed): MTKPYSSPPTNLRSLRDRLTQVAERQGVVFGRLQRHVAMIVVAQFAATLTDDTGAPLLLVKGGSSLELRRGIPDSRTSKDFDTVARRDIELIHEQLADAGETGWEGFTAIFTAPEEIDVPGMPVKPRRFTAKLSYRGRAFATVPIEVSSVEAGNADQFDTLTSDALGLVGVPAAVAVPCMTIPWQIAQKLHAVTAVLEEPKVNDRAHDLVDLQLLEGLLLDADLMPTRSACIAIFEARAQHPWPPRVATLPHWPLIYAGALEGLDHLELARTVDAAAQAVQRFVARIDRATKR

TakA (Rv1044), MBP-TakA, sequence (P96357 entry or part of it): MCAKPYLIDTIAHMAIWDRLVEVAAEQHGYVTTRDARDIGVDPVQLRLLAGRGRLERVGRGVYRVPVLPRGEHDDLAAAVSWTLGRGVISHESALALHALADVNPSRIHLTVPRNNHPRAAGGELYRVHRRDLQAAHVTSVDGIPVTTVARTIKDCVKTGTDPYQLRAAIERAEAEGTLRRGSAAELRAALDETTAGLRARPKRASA

Row | Compound | in vitro kinase assay, 32P transfer to TglT, SDS-PAGE [1] | native-PAGE autoradiography with unlabelled NTP competition [2]
1 | Nc1ncnc2c1ncn2[C@@H]1O[C@H](COP(=O)(O)OP(=O)(O)OP(=O)(O)O)[C@@H](O)[C@H]1O [ATP] | When incubating MBP-TakA with TglT (Fig. 5a), we detected radioactively labeled TglT species in SDS-PAGE. | 
2 | Nc1nc2c(ncn2[C@@H]2O[C@H](COP(=O)(O)OP(=O)(O)OP(=O)(O)O)[C@@H](O)[C@H]2O)c(=O)[nH]1 [GTP] |  | We conclude that TglT specifically binds GTP.
